Measured values: patent publication US20110195930A1, “PYRIDINE DERIVATIVE OR ITS SALT, PESTICIDE CONTAINING IT AND PROCESS FOR ITS PRODUCTION” (Ishihara Sangyo Kaisha, Ltd., priority 2008, published 2011)

Experiments:
[1] = test system: Brown Planthopper (Nilaparvata lugens); test: Test on controlling effects against brown planthopper (rice seedling dip); format: in vivo; conditions: rice seedling dipped about 10 seconds, second-third instar nymphs, 5th day after the release, 25° C.
Description: Test on Controlling Effects Against Brown Planthopper (Nilaparvata lugens)
Rice seedling was dipped for about 10 seconds in an insecticidal solution adjusted to bring the concentration of the compound of the present invention to 200 ppm and then dried in air, its root was wrapped with a wet absorbent cotton, and the seedling was put into a test tube. Then, 10 second-third instar nymphs of Brown Planthopper were released therein, and the test tube was covered with a gauze and left in a constant temperature chamber at 25° C. with lightening. On the 5th day after the release, dead nymphs were counted, and the mortality was calculated by the following equation.
Mortality (%)=(number of dead insects/number of released insects)×100

[2] = test system: Green Peach Aphid (Myzus persicae); test: Test on controlling effects against green peach aphid (leaf dip); format: in vivo; conditions: foliar, 120 h, Japanese radish leaf dipped about 10 seconds, first instar nymphs, 5 days after the treatment, 25° C.
Description: Test on Controlling Effects Against Green Peach Aphid (Myzus persicae)
A Japanese radish leaf was inserted in a test tube in which water was put, and about 20 first instar nymphs of green peach aphid were released on the leaf. On the next day, the number of nymphs parasitic on the leaf was counted, and then the leaf was dipped for about 10 seconds in an insecticidal solution adjusted to bring the concentration of the compound of the present invention to 200 ppm, dried in air and left in a constant temperature chamber at 25° C. with lightening. Dead nymphs were counted 5 days after the treatment, and the mortality was calculated by the following equation. The insects dropped from the leaf or presented toxic symptom were counted as dead insects.
Mortality (%)=(1−(number of survived insects/number of treated insects))×100

SMILES	mortality at 200 ppm [1] [%]	mortality at 200 ppm [2] [%]
CC(C)ON=C(c1ncc(C(F)(F)F)cc1Cl)n1cncn1 [Compound No. 13, [3-chloro-5-(trifluoromethyl)pyridin-2-yl](1H-1,2,4-triazol-1-yl)methanone O-isopropyl oxime]	≥ 90	–
CCON=C(c1ncc(C(F)(F)F)cc1Cl)n1ccnc1 [compound 11]	≥ 90	≥ 90
FC(F)(F)c1cnc(C(=NOCC2CC2)n2cncn2)c(Cl)c1 [compound 32]	≥ 90	≥ 90
CCON=C(c1ncc(C(F)(F)F)cc1C)n1cncn1 [compound 33, [3-methyl-5-(trifluoromethyl)pyridin-2-yl](1H-1,2,4-triazol-1-yl)methanone O-ethyl oxime]	≥ 90	≥ 90
CCON=C(c1ncc(C(F)(F)F)cc1Cl)n1cnnc1 [compound 12]	≥ 90	–
CCON=C(c1cccc(C)n1)n1cncn1 [compound 23]	≥ 90	–
CCON=C(c1ncccc1C(F)(F)F)n1cncn1 [compound 25]	≥ 90	–
CCON=C(c1ncc(C(F)(F)F)cc1Cl)n1cncn1 [Compound No. 10, [3-chloro-5-(trifluoromethyl)pyridin-2-yl](1H-1,2,4-triazol-1-yl)methanone O-oxime]	≥ 90	≥ 90
CCON=C(c1nc(C(F)(F)F)ccc1Cl)n1cncn1 [compound 84]	≥ 90	–
CCON=C(c1cc(C(F)(F)F)ccn1)n1cncn1 [compound 26]	≥ 90	–
CCON=C(c1ncc(C(F)(F)F)cc1Br)n1cncn1 [compound 31]	≥ 90	≥ 90
CCON=C(c1cccc(C(F)(F)F)n1)n1cncn1 [compound 83]	≥ 90	–
CON=C(c1ncc(C(F)(F)F)cc1Cl)n1cncn1 [compound 14]	≥ 90	≥ 90
CCON=C(c1ccc(C(F)(F)F)cn1)n1cncn1 [compound 24]	≥ 90	–
